From patent publication US8828984B2, “Gold(III) complexes containing N-heterocyclic carbene ligand, synthesis, and their applications in cancer treatment and thiol detection” (University of Hong Kong, priority 2012, dated 2014)

What was measured:
[1] = tested on: cervical epithelioid carcinoma (HeLa); assay: MTT cytotoxicity assay, HeLa; assay type: cell-based, human; settings: dose required to inhibit 50% cellular growth for 72 h
Description: (§1) Example 2 describes the in vitro cytotoxicity, which is indicative of the induction of cell death and/or inhibition of cellular proliferation of cancer cells, of the Au(III)-NHC complexes on cervical epithelioid carcinoma, hepatocellular carcinoma, leukemia, nasopharyngeal carcinoma, breast carcinoma, melanoma, and lung carcinoma.
(§2) By means of MTT assays, the cytotoxic properties of 1-11 were determined toward some established human cancer cell lines including hepatocellular carcinoma (HepG2), cervical epithelioid carcinoma (HeLa), lung carcinoma (NCI-H460), breast cancer (MCF-7), melanoma (B 16) and nasopharyngeal carcinoma (SUNE1).

melanoma (B 16) = assay: MTT cytotoxicity assay, B16; assay type: cell-based, mouse; settings: 72 h
Description: as §1, §2

[2] = tested on: hepatocellular carcinoma (HepG2); assay: MTT cytotoxicity assay, HepG2; assay type: cell-based, human; settings: 72 h
Description: as §1, §2

breast cancer (MCF-7) = assay: MTT cytotoxicity assay, MCF-7; assay type: cell-based, human; settings: 72 h
Description: as §1, §2

[3] = tested on: nasopharyngeal carcinoma (SUNE1); assay: MTT cytotoxicity assay, SUNE1; assay type: cell-based, human; settings: 72 h
Description: as §1, §2

[4] = tested on: lung carcinoma (NCI-H460); assay: MTT cytotoxicity assay, NCI-H460; assay type: cell-based, human; settings: 72 h
Description: as §1, §2

HeLa xenograft = assay: In vivo tumor inhibition, mice bearing HeLa xenograft; settings: 3 mg/kg, nude mice bearing HeLa xenograft
Description: Female BALB/cAnN-nu (Nude), 5-7 weeks old, were purchased from the Charles River Laboratories (Wilmington, Mass.) and cared for according to the guidelines of the Laboratory Animal Unit of the University of Hong Kong (HKU). All animal experiments were conducted under the guidelines approved by the Committee on the Use of Live Animals in Teaching and Research of HKU. To establish the HeLa xenograft model, 4×10^6 HeLa cells suspended in 100 μl of PBS were inoculated into the back flanks of female BALB/cAnN-nu (Nude) mice by subcutaneous injection. When the tumor volumes reached about 50 mm^3 (4 days after tumor inoculation), the mice were randomly divided into different treatment groups (3 mg/kg of 5 or solvent control). Complex 5 was reconstituted in PET diluent (60% polyethylene glycol 400, 30% ethanol, 10% Tween 80). Complex 5 dissolved in PET diluent and then diluted in PBS or PBS supplemented with equal amount of PET were injected into the mice by intratumoral injection once every three days until the mice were sacrificed. In this model, the volume of PET diluent injected into each mouse was ≦6 μl. Tumor sizes were measured once every 3 times a week, and tumor volume (V) was calculated by the formula V=ab^2×0.52, where a and b were the longest and the shortest diameters of the xenografted tumor. The tumor inhibition was calculated according to the following formula: Inhibition percentage=[1−(V−V0)/(V′−V0′)]×100% where V and V′ are the tumor volumes of 5 treatment and solvent control, respectively. V0 and V0′ are the initial tumor volumes of the 5 treatment and solvent control, respectively.

[5] = Preliminary toxicity experiment in mice; assay type: in vivo
[6] = tested on: Thioredoxin reductase (TrxR); settings: HeLa cells incubated for 1 h; compared with auranofin
Description: Cell-based TrxR activity experiment was incorporated in our experiments. […] The cell lysates (10 μg proteins) were added to a buffer (100 μL) containing 100 mM potassium phosphate, pH 7.4, 1 mM EDTA and 0.2 mM NADPH. Reaction was initiated by adding 5,5′-dithiobis(2-nitrobenzoic acid) (DTNB, 3 mM final) and the TrxR activities were determined as increases in O.D. 410 nm in 10 min.

PARP, caspase 3, 7 and 9 = assay: Western blotting of apoptosis related proteins in HeLa cells; assay type: cell-based, human; settings: 15 μM, 48 h
Description: Meanwhile, considerable attention has been paid on apoptosis for which can lead cancer cell death. After treating HeLa cells with 15 μM of complex 9 for 48 h, apoptosis related PARP, caspase 3, 7 and 9 were activated according to western blotting results (FIG. 4b).

HeLa cells = assay: Fluorescence microscopic examination of HeLa cells; assay type: cell-based, human; settings: 20 μM, 10 min, ex 340 nm
Description: Fluorescence microscopic examination 9: HeLa cells (1×10^5 cells) were seeded in a one chamber slide (Nalgene; Nunc) with culture medium (2 mLwell^−1) and incubated at 37° C. in a humidified atmosphere of 5% CO2/95% air for 24 h. After treating with 9 (20 μM, 1 mL) for 10 min, cells were directly exposed for fluorescent imaging without removing the old medium. The bright-field and fluorescent images (ex: 340 nm) were examined in Axiovert 200 (Carl Zeiss) and in an Axio Vision Rel. 4.5 imaging system (Carl Zeiss).

CCCCCCCCn1cc[n+](C)[c]1[Au-]12[n]3ccnc3-c3cccc([n+]31)-c1ncc[n]12.O=S(=O)([O-])C(F)(F)F [Complex 3]
IC50 [1]: 14 ± 0.3 µM | IC50 (melanoma (B 16)): 3.8 ± 0.1 µM | IC50 [2]: 14.7 ± 1.5 µM | IC50 (breast cancer (MCF-7)): 8.5 ± 0.2 µM | IC50 [3]: 8.9 ± 0.6 µM | IC50 [4]: 17.3 ± 0.3 µM

CCCCCCCCCCCCCCCCn1cc[n+](C)[c]1[Au-]12[n]3ccnc3-c3cccc([n+]31)-c1ncc[n]12.O=S(=O)([O-])C(F)(F)F [Complex 5]
IC50 [1]: 1.4 ± 0.2 µM | IC50 (melanoma (B 16)): 2.2 ± 0.1 µM | IC50 [2]: 3.3 ± 0.5 µM | IC50 (breast cancer (MCF-7)): 2.9 ± 0.2 µM | Tumor inhibition after 11 days (HeLa xenograft; intratumoral injection once every three days, 11 days (p<0.05)): up to 60% | Tumor inhibition after 14 days (HeLa xenograft; intratumoral injection once every three days, 14 days (p<0.01)): ≤ 76% | Mouse death / mouse body weight loss during treatment (HeLa xenograft; intratumoral): No mouse death or mouse body weight loss was found | Toxicity to mice at 7 mg/kg (body weight) ([5]; 7 mg/kg): slight drop of body weight | Toxicity to mice at 20 mg/kg ([5]; 20 mg/kg): toxic to mice | IC50 [3]: 28.6 ± 0.3 µM | IC50 [4]: 1.4 ± 0.1 µM

CCCCCCn1cc[n+](CCCCCC)[c]1[Au-]12[n]3ccnc3-c3cccc([n+]31)-c1ncc[n]12.O=S(=O)([O-])C(F)(F)F [Complex 7]
IC50 [1]: 8.2 µM | IC50 (melanoma (B 16)): 7.7 ± 1 µM | IC50 [2]: 9.1 ± 0.3 µM | IC50 (breast cancer (MCF-7)): 8.6 ± 0.1 µM | IC50 [3]: 36.8 ± 1.6 µM | IC50 [4]: 34.6 ± 3.1 µM

C[n+]1ccn(CCC[P+](c2ccccc2)(c2ccccc2)c2ccccc2)[c]1[Au-]12[n]3ccnc3-c3cccc([n+]31)-c1ncc[n]12.O=S(=O)([O-])C(F)(F)F.O=S(=O)([O-])C(F)(F)F [Complex 8]
IC50 [1]: 77.4 ± 1.8 µM | IC50 (melanoma (B 16)): 36.8 ± 0.9 µM | IC50 (breast cancer (MCF-7)): 49.7 ± 3 µM | IC50 [3]: 47.3 ± 6.2 µM | IC50 [4]: 65.4 ± 1.1 µM

CCCCCCn1cc[n+](CCCCCC)[c]1[Au-]12[n]3c(nc4ccccc43)-c3cccc([n+]31)-c1nc3ccccc3[n]12.O=S(=O)([O-])C(F)(F)F [Complex 11]
IC50 [1]: 8.4 ± 0.1 µM | IC50 (melanoma (B 16)): 5.5 ± 0.1 µM | IC50 [2]: 2.6 ± 0.4 µM | IC50 (breast cancer (MCF-7)): 4 ± 0.1 µM | IC50 [3]: 3.1 ± 0.3 µM | IC50 [4]: 5 ± 0.1 µM

Cn1cc[n+](C)[c]1[Au-]12[n]3ccnc3-c3cccc([n+]31)-c1ncc[n]12.O=S(=O)([O-])C(F)(F)F [Complex 1]
IC50 [1]: 32.9 ± 1.3 µM | IC50 (melanoma (B 16)): 30.6 ± 0.3 µM | IC50 [2]: 36.2 ± 2.2 µM | IC50 (breast cancer (MCF-7)): 18.4 ± 0.3 µM | IC50 [3]: 28.7 ± 7.3 µM | IC50 [4]: 55 ± 8.5 µM | Inhibition of cell-based TrxR activity [6]: can inhibit cell-based TrxR activity similarly to auranofin

CCCCn1cc[n+](CCCC)[c]1[Au-]12[n]3c(nc4ccccc43)-c3cccc([n+]31)-c1nc3ccccc3[n]12.O=S(=O)([O-])C(F)(F)F [Complex 10]
IC50 [1]: 9.2 ± 0.4 µM | IC50 (melanoma (B 16)): 5.2 ± 0.2 µM | IC50 [2]: 14.7 ± 1.1 µM | IC50 (breast cancer (MCF-7)): 8.7 ± 0.2 µM | IC50 [3]: 5.2 ± 1.6 µM | IC50 [4]: 5.5 ± 0.3 µM

Cn1cc[n+](C)[c]1[Au-]12[n]3c(nc4ccccc43)-c3cccc([n+]31)-c1nc3ccccc3[n]12.O=S(=O)([O-])C(F)(F)F [Complex 9]
IC50 [1]: 14.4 µM | IC50 (melanoma (B 16)): 12.4 ± 0.1 µM | IC50 [2]: 18 ± 0.5 µM | IC50 (breast cancer (MCF-7)): 11.9 ± 1 µM | Activation of apoptosis related PARP, caspase 3, 7 and 9 (western blotting) (PARP, caspase 3, 7 and 9): activated | IC50 [3]: 11.2 ± 0.6 µM | Cellular fluorescence (localisation) (HeLa cells): significant blue fluorescence was detected in cytoplasm but not in nucleus or extracellular environment | IC50 [4]: 11.2 ± 0.7 µM | Inhibition of cell-based TrxR activity [6]: can inhibit cell-based TrxR activity similarly to auranofin

CCCCCCCCCCn1cc[n+](C)[c]1[Au-]12[n]3ccnc3-c3cccc([n+]31)-c1ncc[n]12.O=S(=O)([O-])C(F)(F)F [Complex 4]
IC50 [1]: 8.2 µM | IC50 (melanoma (B 16)): 1.6 ± 0.1 µM | IC50 [2]: 11.8 ± 1.2 µM | IC50 (breast cancer (MCF-7)): 6.5 ± 0.5 µM | IC50 [3]: 5.5 ± 0.3 µM | IC50 [4]: 9.7 ± 0.4 µM

CCCCn1cc[n+](CCCC)[c]1[Au-]12[n]3ccnc3-c3cccc([n+]31)-c1ncc[n]12.O=S(=O)([O-])C(F)(F)F [Complex 6]
IC50 [1]: 13 ± 1.6 µM | IC50 (melanoma (B 16)): 8.3 ± 0.2 µM | IC50 [2]: 28.7 ± 5.9 µM | IC50 (breast cancer (MCF-7)): 12.9 ± 2 µM | IC50 [3]: 9.9 ± 0.2 µM | IC50 [4]: 7.9 ± 1.1 µM
